Legend:
DAAO = test system: DAAO; design: method as in PMID 25001371; conditions: cited from earlier work
Human DAAO = target: T1, Human DAAO (Homo sapiens, UniProt P14920); test: KYNA enzyme inhibition assay (D-kynurenine substrate, fluorescence); assay type: biochemical; conditions: 5 µM FAD, pH 8, 37 °C 1 h, standard deviations in parenthesis
T1 construct: purchased TargetEx Ltd. (Dunakeszi, Hungary)
Method: The prepared compounds were tested as DAAO inhibitors with the KYNA enzyme inhibitory assay. Although D-serine is a natural substrate of DAAO, its metabolite is not suitable for fluorometric evaluation. However in the applied assay, D-kynurenine can be metabolized by DAAO [19] and the metabolite (KYNA) has a favorable fluorescence property. Thus it can be used for fluorescence measurements.
D-2-Amino-4-(2-aminophenyl)-4-oxobutanoic acid (D-KYN) was used to measure D-amino acid oxidase activity based on the protocol described in ref. [18, 20]. Human DAAO (purchased from TargetEx Ltd. (Dunakeszi, Hungary)) was used for the measurements. The buffer contained 20 mM TRIS-HCl and 100 mM NaCl (pH = 8). Flavin adenine dinucleotide (FAD—obtained from Sigma (St. Louis, MO, USA)) in 5 µM concentration was also included in the assay. Compounds were dissolved originally in DMSO and the measured samples were diluted with the buffer solution (the final DMSO concentration was always below 5%). The mixed solution was incubated at 37 °C for 1 h. After the enzymatic reaction, ZnCl2 dissolved in H2O was added and vortex-mixed. Single point measurements were performed at 20 µm inhibitor concentration. For the IC50 measurements, the inhibitors were used at 5 nM, 50 nM, 500 nM, 2.5 µM, 5 µM, 10 µM, 50 µM. Measurements were carried out on a Citation3 cell imaging multi-mode microplate reader (BioTek Instruments Inc., Winooski, VT, USA) with […]. The applied wavelengths were 340 nm and 396 nm.
Result from the coupled HRP/Amplex Red assay for compound 13
Compound 13 was evaluated in both the KYNA and the coupled HRP/Amplex red assays. Assay […]
HRP/Amplex assay KYNA assay […]
hDAAO original concentration 1 µg / 1500 µL buffer 1 µg / 400 µL buffer hDAAO assay concentration 0.25 µg / 1500 µL buffer 0.25 µg / 400 µL buffer FAD conc. in assay 5 µM 5 µM
Ligand conc. in assay 20 µM 20 µM
Incubation period No Yes (1 hour, 37 °C)
Type of the measurement Kinetic (45 min) single point detection
Detection fluorescent fluorescent
Assay interference Yes No
Ligand autofluorescence No No
Dose response curve obtained for compound 13 using the HRP/Amplex red assay
(1 picture or pasted object on this page, not shown here)

hDAO = hDAO (Homo sapiens, UniProt P14920); test: Differential scanning fluorimetry (DSF) measurement; assay type: binding; conditions: for Tm: hDAO without inhibitor 59.4 °C; for ~ΔTm: shift versus hDAO without inhibitor
Method: We started with compounds 8 and 9 (Figure 3). […] The activity of this 3-Cl substituted derivative (11) was lower than 100 nM therefore we synthesized the 3-Me derivative (12). […] DAAO binding and activity of representative compounds have been confirmed in orthogonal differential scanning fluorometry (DSF) and the coupled Horseradish peroxidase (HRP)/Amplex Red assays, respectively (see Supplementary materials). The designed compounds were docked into the protein structure obtained from the complex of 8 by the removal of the ligand. […]
Scheme S4. Synthesis of the headgroup […]
Results from differential scanning fluorimetry (DSF) measurements
Compound Structure DSF measurement […]

T1 sequence (P14920 whole entry): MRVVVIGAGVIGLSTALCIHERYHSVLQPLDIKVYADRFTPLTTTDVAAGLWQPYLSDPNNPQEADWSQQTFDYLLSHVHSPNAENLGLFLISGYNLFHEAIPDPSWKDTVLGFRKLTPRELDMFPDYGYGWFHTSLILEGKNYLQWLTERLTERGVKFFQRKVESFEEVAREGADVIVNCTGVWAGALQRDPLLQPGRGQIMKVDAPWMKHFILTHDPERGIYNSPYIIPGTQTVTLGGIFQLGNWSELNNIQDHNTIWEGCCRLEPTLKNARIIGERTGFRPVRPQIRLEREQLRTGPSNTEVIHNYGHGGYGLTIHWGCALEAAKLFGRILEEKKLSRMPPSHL
hDAO, sequence (P14920 whole entry): as above

## O=C(O)CCc1cc2c(-c3ccccc3)cc(=O)oc2cc1O [Compound 7]
DAAO
  competitive D-serine inhibitory properties: low nanomolar range

## O=c1cc(-c2ccccc2)c2cc(CCc3cc(O)c(=O)[nH]n3)c(O)cc2o1 [Compound 8, reference compound]
Human DAAO
  IC50: 112 nM
hDAO
  Tm: 74.7 °C
  ~ΔTm: ~15.3 °C

## O=c1cc(-c2ccc(Cl)cc2)c2cc(CCc3cc(O)c(=O)[nH]n3)c(O)cc2o1 [Compound 9]
Human DAAO
  IC50: 119 nM

## Cc1ccc(-c2cc(=O)oc3cc(O)c(CCc4cc(O)c(=O)[nH]n4)cc23)cc1 [Compound 10]
Human DAAO
  IC50: 474 nM

## O=c1cc(-c2cccc(Cl)c2)c2cc(CCc3cc(O)c(=O)[nH]n3)c(O)cc2o1 [Compound 11]
Human DAAO
  IC50: 69 nM

## Cc1cccc(-c2cc(=O)oc3cc(O)c(CCc4cc(O)c(=O)[nH]n4)cc23)c1 [Compound 12]
Human DAAO
  IC50: 52 nM

## COc1cccc(-c2cc(=O)oc3cc(O)c(CCc4cc(O)c(=O)[nH]n4)cc23)c1 [Compound 13]
Human DAAO
  IC50: 73 nM
hDAO
  Tm: 72.0 °C
  ~ΔTm: ~12.6 °C
